Target: Influenza PB2 (Influenza A virus, UniProt P03428)
Assay: biochemical
Type: binding
Settings: read-out: Influenza PB2 affinity, IC50

Influenza PB2, sequence (P03428 whole entry, looked up): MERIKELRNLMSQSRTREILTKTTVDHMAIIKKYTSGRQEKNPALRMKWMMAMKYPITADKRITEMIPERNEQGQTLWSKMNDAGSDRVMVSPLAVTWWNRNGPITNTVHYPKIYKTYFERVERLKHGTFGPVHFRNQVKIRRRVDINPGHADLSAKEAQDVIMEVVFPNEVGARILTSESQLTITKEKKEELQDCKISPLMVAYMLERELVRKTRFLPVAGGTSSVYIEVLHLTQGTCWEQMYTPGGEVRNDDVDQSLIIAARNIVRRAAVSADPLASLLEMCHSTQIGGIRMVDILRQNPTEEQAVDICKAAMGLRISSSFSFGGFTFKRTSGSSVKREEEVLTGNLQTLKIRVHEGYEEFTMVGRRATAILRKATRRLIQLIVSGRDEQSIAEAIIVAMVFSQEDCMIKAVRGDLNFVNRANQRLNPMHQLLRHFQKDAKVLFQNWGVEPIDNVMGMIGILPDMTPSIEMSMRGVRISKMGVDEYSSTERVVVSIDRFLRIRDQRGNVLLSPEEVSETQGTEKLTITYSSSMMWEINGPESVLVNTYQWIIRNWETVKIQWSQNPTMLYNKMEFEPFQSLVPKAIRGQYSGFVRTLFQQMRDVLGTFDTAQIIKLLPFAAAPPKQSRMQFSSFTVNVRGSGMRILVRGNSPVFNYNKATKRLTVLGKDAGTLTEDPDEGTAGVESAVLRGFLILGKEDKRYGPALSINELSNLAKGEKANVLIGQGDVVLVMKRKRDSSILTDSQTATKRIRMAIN

Compound | IC50 [µM]
CNC(=O)[C@@H]1C2CCC(CC2)C1n1cc(F)c2cnc(-c3c[nH]c4ncc(Cl)cc34)nc21 (single isomer, unassigned) [Compound B194] | 1 to 10
O=C(O)[C@H]1C2CCC(CC2)[C@@H]1n1cc(F)c2cnc(-c3c[nH]c4ncc(F)cc34)nc21 [Compound B131] | < 1
O=C(O)[C@@H]1C2CCC(CC2)C1n1cc(F)c2cnc(-c3c[nH]c4ncc(F)cc34)nc21 (some centres unmarked) [Compound B139] | 1 to 10
CCOC(=O)[C@@H]1C2CCC(CC2)[C@H]1n1cc(-c2ccncc2)c2cnc(-c3c[nH]c4ncc(F)cc34)nc21 [Compound B176] | 10 to 100
CN(C)C(=O)N[C@H]1CC[C@H](n2ccc3cnc(-c4c[nH]c5ncc(F)cc45)nc32)CC1 [Compound B80] | > 100
CN(C)C(=O)N[C@H]1C2CCC(CC2)[C@@H]1n1cc(Cl)c2cnc(-c3c[nH]c4ncc(F)cc34)nc21 [Compound B171] | 1 to 10
O=C(O)CCn1ccc2cnc(-c3c[nH]c4ncc(F)cc34)nc21 [Compound B5] | 10 to 100
CCOCCOCCCCC(=O)N[C@H]1CCC[C@@H](n2ccc3cnc(-c4c[nH]c5ncc(F)cc45)nc32)C1 [Compound B52] | > 100
O=C(O)[C@H]1C2CCC(CC2)[C@@H]1n1cc(Cl)c2cnc(-c3c[nH]c4ncccc34)nc21 [Compound B140] | < 1
CNC(=O)N[C@H]1CC[C@H](n2ccc3cnc(-c4c[nH]c5ncc(F)cc45)nc32)CC1 [Compound B79] | > 100
CC(Cn1cc(-c2c[nH]c3ncc(F)cc23)c2cncnc21)C(=O)O (centres unmarked) [Compound C7] | 10 to 100
O=C(O)[C@H]1CCCN1C(=O)Cn1ccc2c(-c3c[nH]c4ncc(F)cc34)ncnc21 [Compound A9] | 10 to 100
O=C(Cn1ccc2cnc(-c3c[nH]c4ncc(F)cc34)nc21)N[C@@H](Cc1ccccc1)C(=O)O [Compound B14] | 10 to 100
CC(C(=O)O)n1cc(-c2c[nH]c3ncc(F)cc23)c2cncnc21 (centres unmarked) [Compound C10] | > 100
COC(=O)[C@@H]1C2CCC(CC2)[C@H]1n1cc(-c2ccccc2O)c2cnc(-c3c[nH]c4ncc(F)cc34)nc21 [Compound B170] | 10 to 100
COC(=O)[C@H]1CCCC[C@@H]1n1ccc2cnc(-c3c[nH]c4ncc(F)cc34)nc21 [Compound B20] | 10 to 100
C[C@]1(C(=O)O)CCCC[C@@H]1n1ccc2cnc(-c3c[nH]c4ncc(F)cc34)nc21 [Compound B71] | < 1

Source: patent US11014941B2, “Pyrrolopyrimidine derivatives useful as inhibitors of influenza virus replication” (priority 2017, dated 2021)
